For two compounds, IC50 and ED50 results are on record in patent US5208259A, “Diaryl ether hetrocycles” (Imperial Chemical Industries, priority 1989, dated 1993).

Assay [1] concerns 5-LO. In words: Test b) heparinised human blood challenged with A23187, LTB4 radioimmunoassay. In kind it is cell-based. The settings on record: A23187, against LTB4. Here is the method: b) An in vitro assay system involving incubating a test compound with heparinised human blood, prior to challenge with the calcium ionophore A23187 and then indirectly measuring the inhibitory effects on 5-L0 by assaying the amount of LTB4 using the specific radioimmunoassay described by Carey and Forder (F. Carey and R. A. Forder, Brit. J. Pharmacol. 1985, 84, 34P) which involves the use of a protein-LTB4 conjugate produced using the procedure of Young et alia (Prostaglandins, 1983, 26(4), 605-613). The effects of a test compound on the enzyme cyclooxygenase (which is involved in the alternative metabolic pathway for arachidonic acid and gives rise to prostaglandins, thromboxanes and related metabolites) may be measured at the same time using the specific radioimmunoassay for thromboxane B2 (TxB2) described by Carey and Forder (see above). This test provides an indication of the effects of a test compound against 5-L0 and also cylooxygenase in the presence of blood cells and proteins. It permits the selectivity of the inhibitory effect on 5-L0 or cyclooxygenase to be assessed.

The subject of assay [2] is 5-LO. In words: Test c) ex vivo assay: oral administration, blood collection, A23187 challenge, radioimmunoassay of LTB4. In kind it is in vivo. Here is the method: c) An ex vivo assay system, which is a variation of test b) above, involving administration of a test compound (usually orally as the suspension produced when a solution of the test compound in dimethylsulphoxide is added to carboxymethylcellulose), blood collection, heparinisation, challenge with A23187 and radioimmunoassay of LTB4 and TxB2. This test provides an indication of the bioavailability of a test compound as an inhibitor of 5-L0 or cyclooxygenase.

Assay [3] has as its system 5-LO. In words: Test g) zymosan-induced liberation of LTB4 within air pouch of male rats. The assay is classed as in vivo. The settings on record: 3 h; Test g), rat air pouch, oral. Here is the method:
g) An in vivo system involving measuring the effects of a test compound administered orally against the liberation of LTB4 induced by zymosan within an air pouch generated within the subcutaneous tissue of the back of male rats. The rats are anaesthetised and air pouches are formed by the injection of sterile air (20 ml). A further injection of air (10 ml) is similarly given after 3 days). At 6 days after the initial air injection the test compound is administered (usually orally as the suspension produced when a solution of the test compound in dimethylsulphoxide is added to hydroxypropylmethylcellulose), followed by the intrapouch injection of zymosan (1 ml of a 1% suspension in physiological saline). After 3 hours the rats are killed, the air pouches are lavaged with physiological saline, and the specific radioimmunoassay described above is used to assay LTB4 in the washings. This test provides an indication of inhibitory effects against 5-L0 in an inflammatory milieu.

Compound `COC1(c2cccc(Sc3ccc4ccccc4c3)c2)CCOCC1` [4-methoxy-4-[3-(naphth-2-ylthio)phenyl]tetrahydropyran] displayed an IC50 in the assay on 5-LO [1] of less than 150 nM. Moreover, the ED50 with 5-LO [2] was 3 mg/kg; in the assay with 5-LO [3] it was less than 10 mg/kg.

Turning to `CO[C@]1(c2cc(F)cc(Sc3ccc(C(C)(C)C)cc3)c2)CCO[C@@H](C)C1` [(2S,4R)-4-[5-fluoro-3-(4-tert-butylphenylthio)phenyl]-4-methoxy-2-methyltetrahydropyran], the IC50 in the assay on 5-LO [1] was less than 150 nM. In addition, the figures for the ED50 with 5-LO [2] and in the assay with 5-LO [3] were 2 mg/kg and 0.75 mg/kg, respectively.

The IC50 is the point on the concentration scale where inhibition reaches its midpoint. Read a low IC50 as greater potency in that assay. In general, ED50 refers to the dose that gives a 50% effect, or the effect in half of the subjects.
